Assay results as given in US5721265A, “Fluorinated 2-nitroimidazole analogs for detecting hypoxic tumor cells” (priority 1995, dated 1998).
“Also recorded” adds a separate entry of the source. Read-outs that look alike come from different tables or passages of the source.

Experiments:
[1] = pharmacokinetics of SR 4554 in EMT-6 tumor-bearing mice (HPLC); type: in vivo, mouse
Description: Silver nitrate solution (25 μl; 30% w/v) was added to 250 μl of tissue samples and standards and to 20 μl of internal standard solution (12.5 μg/ml in 0.1M Tris buffer, pH 7.4). Samples were then vortexed and centrifuged (2000×g) for 5 min. The extracted samples 50 μl) were then injected into the HPLC.
(§1) The chromatographic system consisted of a WISP Model 712 autosampler (Waters Chromatography Ltd.), Model 660 gradient controller with a quaternary HPLC pump, a Model 991 photodiode array detector and a NEC Powermate SX/16 personal computer running Waters 991 photodiode array software. A reversed phase chromatographic separation was performed on a 10 μm μ Bondapak C18 (3.9×300 mm) analytical column (Millipore) at ambient temperature. Pellicular ODS (Whatman) packed in a 2×6.5 mm stainless steel column (Upchurch Scientific, Inc.) was used as a pre-column. The mobile phase was methanol/H2 O) (15:85). All solvents were filtered through a 0.45 μm Teflon PTFE/polypropylene filter membrane, de-gassed with helium and delivered isocratically at a flow rate of 2 ml/min. The column effluent was monitored by UV-photodiode array detection at 324 nm (UV range=200 to 500 nm). The peak area ratio of analyte to internal standard was used for conversion of the detector response to concentration estimates via the construction of a calibration curve.
EMT-6 tumor-bearing mice were used in this study. Mice were given a single intraperitoneal or intravenous injection (180 mg/kg body weight) or a single oral dose (p.o. 90 mg/kg) by lavage of SR 4554. Three mice were sacrificed per time point and blood obtained by cardiac puncture. The blood obtained was centrifuged to give plasma. Tumors, livers and brain were also obtained at various time points. Samples were extracted with silver nitrate and analyzed by high performance liquid chromatography (HPLC) using the procedures described in Example 4.

[2] = reductive metabolism of SR 4554 by mouse liver microsomes under hypoxia (HPLC); type: in vitro ADME
Description: as §1
SR 4554 was reduced by mouse liver microsomes as well as purified rat and human cytochrome P450 reductase under hypoxia (100% nitrogen).
The characteristics of reductive metabolism of SR 4554 by mouse liver microsomes (0.5 mg/ml protein) are depicted in FIG. 1. Samples were removed at various time points, extracted with silver nitrate and analyzed by high performance liquid chromatography (HPLC) as described above. […] The cytochrome P450 inhibitor--carbonmonoxide--inhibited the hypoxic metabolism of SR 4554 by 15%.

[3] = toxicity of SR 4554 in female Balb/c mice; type: in vivo, mouse
Description: Toxicity studies of SR 4554 were done in female Balb/c mice. Mice were injected with SR 4554 i.v with 191 mg/kg ([…]) body weight or i.p. with 383 mg/kg ([…]) body weight. Control mice were injected with an equivalent volume of solvent (saline).

O=C(Cn1ccnc1[N+](=O)[O-])NCC(O)C(F)(F)F (racemic) [SR 4554]
brain/plasma ratio over time ([1]; i.p.): generally remained low throughout the observation period
liver/plasma ratio over time ([1]; i.p.): decreased very rapidly
time of peak tumor/plasma ratio ([1]; i.p.): about 90 min
liver/plasma and brain/plasma ratios at 240 min ([1]; i.p., 240 min): about the same
bioavailability ratio relative to i.v., i.v. ([1]; i.v. 180 mg/kg): 100%
detectable in plasma until ([1]; limit of detection=25 ng/ml, postinjection): ≥ 6 h
brain levels and brain/plasma ratio ([1]; mice): generally low
accumulation in the brain ([1]; mouse, in vivo): does not accumulate to any appreciable degree in the brain
bioavailability ([1]; mouse, in vivo, ip, i.p. 180 mg/kg, read-out: bioavailability ratio relative to i.v., i.p.): 100%
bioavailability ([1]; mouse, in vivo, po, p.o. 90 mg/kg, read-out: bioavailability ratio relative to i.v., p.o.): 95.5%
Cmax ([1]; mouse, plasma, read-out: Cmax, plasma): 145 µg/mL
half-life ([1]; mouse, plasma, read-out: half life, t1/2, plasma): 50.8 ± 1.6 min
Tmax ([1]; mouse, plasma, read-out: tmax, plasma (converted)): 30 min
concentration at 6 h ([1]; mouse, tissue, limit of detection, 6 hours, read-out: tissue levels of drug at 6 hours): < 100 ng/g
Cmax ([1]; mouse, tumor, read-out: Cmax, tumor): 52000 ng/g
half-life ([1]; mouse, tumor, read-out: half life, t1/2, tumor): 51.5 ± 4.4 min
Tmax ([1]; mouse, tumor, read-out: tmax, tumor (converted)): 45 min
inhibition of reduction by cytochrome P450 reductase inhibitor ([2]; TlCl3.4H2O, 0.2 mg/ml): completely inhibited
inhibition of reduction by air ([2]; in air): completely inhibited
Vmax of microsomal metabolism ([2]; mouse liver microsomes): 16.84 nmol/min/mg
other nitro-containing species upon metabolism ([2]; mouse liver microsomes 0.5 mg/ml protein): No other nitro-containing species were observed
reduced under hypoxia ([2]; mouse liver microsomes, 100% nitrogen): reduced; also recorded: metabolized under hypoxic conditions
Km ([2]; mouse liver microsomes, read-out: Km of microsomal metabolism): 650 µM
inhibition of reduction in the absence of cofactor (NADPH) ([2]; without NADPH): completely inhibited
behavioral changes or deaths ([3]; i.v. 191 mg/kg or i.p. 383 mg/kg): no behavioral changes or deaths were observed
bodyweight changes between treated and control mice ([3]; mouse, in vivo): No differences were observed
